# Experimental data as given in patent US11186590B2, “Somatostatin modulators and uses thereof” (CRINETICS PHARMACEUTICALS, INC., priority 2018, dated 2021).
# System: not listed separately
# Assay: Liver microsomal stability assay
# Assay type: in vitro ADME
# Conditions: human liver microsomes, 0.5 mg/mL protein, 37° C.
# Protocol: The in vitro stabilities of compounds of interest were determined for various species using pooled male and female human, pooled male Sprague-Dawley rat, pooled male Cynomolgus monkey, and pooled male Beagle dog liver microsomes at microsomal protein concentrations of 0.5 mg/mL. Incubations were carried out in a potassium phosphate buffer (50 mM). The NADPH-generating system was composed of NADP+ (1 mM), magnesium chloride (3 mM), EDTA (1 mM), glucose-6-phosphate (5 mM) and glucose-6-phosphate dehydrogenase (1 Unit/mL) for all experiments. Compounds of interest in DMSO were added to achieve a final incubation concentration of […] (final DMSO content was 0.1% v/v and final acetonitrile content was 0.9%). The final incubation volume was 400 μL. Incubations were conducted at 37° C. for 0, 5, 10, 20, 40 and 60 minutes in a shaking water bath and terminated by removing 50 µL of incubation mixture and adding to 100 μL of ice cold acetonitrile containing internal standard. Following precipitation by centrifugation at 3500 rpm and 4° C. for 30 minutes, compounds of interest and internal standard were analyzed in the resultant supernatant using a multiple reaction monitoring (MRM) LC-MS/MS method. MS conditions were optimized for each analyte.
# The following Table (Table D) illustrates human liver microsomal stability of exemplary compounds.
row,SMILES,HLM t1/2
1,"COc1cc(C#N)cc2[nH]c(-c3c(N)ncc(-c4cc(F)cc(F)c4)c3N3CC[C@@H]4NCCO[C@H]4C3)nc12 [Compound 3-18, 2-{4-[(4αS,8αS)-octahydro-1H-pyrido[3,4-b][1,4]oxazin-6-yl]-2-amino-5-(3,5-difluorophenyl)pyridin-3-yl}-4-methoxy-1H-1,3-benzodiazole-6-carbonitrile]",1.65 h

# Molecular target: hSSTR4 (Homo sapiens (Human), UniProt P31391)
# Assay: selectivity for inhibition of cAMP via hSSTR2 vs. hSSTR4
# Assay type: cell-based
# Conditions: Table B
# From the text: General overview: All five SSTR subtypes are Gi coupled G-protein coupled receptors (GPCRs) that lead to decreases in intracellular cyclic AMP (cAMP) when activated by an agonist. Therefore, measurement of intracellular cAMP levels can be used to assess whether compounds of the invention are agonists of SSTR subtypes (John Kelly, Troy Stevens, W. Joseph Thompson, and Roland Seifert, Current Protocols in Pharmacology, 2005, 2.2.1-2.2). One example of an intracellular cAMP assay is described below.
# Four days prior to the assay, 5,000 Chinese hamster ovary cells (CHO-K1, ATCC #CCL-61) stably expressing the human somatostatin receptor subtype 2 are plated in each well of a 96-well tissue culture-treated plate in Ham's F12 growth media (ThermoFisher #10-080-CM) supplemented with 10% donor bovine serum (Gemini Bio-Products #100-506), 100 U/mL penicillin; 100 ug/mL streptomycin; 2 mM L-glutamine (Gemini Bio-Products #400-110) and 0.2 mg/mL hygromycin B (GoldBio #31282-04-9). The cells are cultured at 37° C., 5% CO2 and 95% humidity. On the day of the assay, the media is aspirated and the cells are treated with 50 μL of 1.6 μM NKH477 (Sigma #N3290) plus various dilutions of compounds of the invention in assay buffer [1× Hank's Balanced Salt Solution (ThermoFisher #SH3058802), 0.5 mM HEPES pH 7.4, 0.1% bovine serum albumin, 0.2 mM 3-Isobutyl-1-methylxanthine (IBMX, VWR #200002-790)]. The cells are incubated for 20 minutes at 37° C. (the final concentration of the compounds of the invention are typically 0-10,000 nM). The cells are treated with 50 μL of lysis buffer (HRTF cAMP kit, Cisbio). The lysate is transferred to 384-well plates and cAMP detection and visualization antibodies are added and incubated for 1-24 hours at room temperature. The time-resolved fluorescent signal is read with a Tecan M1000Pro multiplate reader. The intracellular cAMP concentrations are calculated by regression to a standard curve and are plotted vs. the concentration of the compounds of the invention and the EC50 of the compounds are calculated using standard methods. All data manipulations are in GraphPad Prism v6.
# Chain of hSSTR4 (P31391 whole entry): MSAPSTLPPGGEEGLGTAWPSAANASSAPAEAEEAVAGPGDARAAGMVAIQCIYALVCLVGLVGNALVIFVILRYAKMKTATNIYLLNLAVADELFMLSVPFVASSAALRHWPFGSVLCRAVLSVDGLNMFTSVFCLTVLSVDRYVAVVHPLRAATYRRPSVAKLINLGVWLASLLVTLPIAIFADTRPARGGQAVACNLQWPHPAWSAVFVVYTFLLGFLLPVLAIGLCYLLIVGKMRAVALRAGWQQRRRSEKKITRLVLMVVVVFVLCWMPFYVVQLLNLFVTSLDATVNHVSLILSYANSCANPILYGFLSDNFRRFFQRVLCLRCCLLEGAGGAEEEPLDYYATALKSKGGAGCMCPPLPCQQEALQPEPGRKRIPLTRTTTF
row,SMILES,hSST4/hSST2 (ratio)
1,"COc1cc(C#N)cc2[nH]c(-c3c(N)ncc(-c4cc(C)cc(F)c4)c3N3CCC(N)CC3)nc12 [Compound 1-1, 2-[2-amino-4-(4-aminopiperidin-1-yl)-5-(3-fluoro-5-methylphenyl)pyridin-3-yl]-4-methoxy-1H-1,3-benzodiazole-6-carbonitrile]",a (a = above 50)
2,"COC(=O)c1ncc(-c2cc(C)cc(F)c2)c(N2CCC(N)CC2)c1-c1nc2cc(F)cc(OC)c2[nH]1 [Compound 2-1, methyl 4-(4-aminopiperidin-1-yl)-3-(6-fluoro-4-methoxy-1H-1,3-benzodiazol-2-yl)-5-(3-fluoro-5-methylphenyl)pyridine-2-carboxylate]",d (d = between 1 and 2.5)
3,"COc1cc(F)cc2nc(-c3c(C#N)ncc(-c4cc(C)cc(F)c4)c3N3CCC(N)CC3)[nH]c12 [Compound 2-2, 4-(4-aminopiperidin-1-yl)-3-(6-fluoro-4-methoxy-1H-1,3-benzodiazol-2-yl)-5-(3-fluoro-5-methylphenyl)pyridine-2-carbonitrile]",e (e = between 1 and 0.5)
4,"COc1cc(F)cc2nc(-c3c(C(N)=O)ncc(-c4cc(C)cc(F)c4)c3N3CCC(N)CC3)[nH]c12 [Compound 2-3, 4-(4-aminopiperidin-1-yl)-3-(6-fluoro-4-methoxy-1H-1,3-benzodiazol-2-yl)-5-(3-fluoro-5-methylphenyl)pyridine-2-carboxamide]",b (b = between 15 and 50)

# Same assay, conditions: Table C
row,SMILES,hSST4/hSST2 (ratio)
1,"CNc1ncc(-c2cccc(F)c2)c(N2CC[C@@H]3NCCO[C@H]3C2)c1-c1nc2c(OC)cc(F)cc2[nH]1 [Compound 3-10, 4-[(4αS,8αS)-octahydro-1H-pyrido[3,4-b][1,4]oxazin-6-yl]-3-(6-fluoro-4-methoxy-1H-1,3-benzodiazol-2-yl)-5-(3-fluorophenyl)-N-methylpyridin-2-amine]",a (a = above 50)
2,"COc1cc(C#N)cc2[nH]c(-c3c(N)ncc(-c4cc(F)cc(F)c4)c3N3CC[C@@H]4NCCO[C@H]4C3)nc12 [Compound 3-18, 2-{4-[(4αS,8αS)-octahydro-1H-pyrido[3,4-b][1,4]oxazin-6-yl]-2-amino-5-(3,5-difluorophenyl)pyridin-3-yl}-4-methoxy-1H-1,3-benzodiazole-6-carbonitrile]",b (b = between 15 and 50)
3,"N#Cc1cc(F)c2nc(-c3c(N)ncc(-c4cc(F)cc(F)c4)c3N3CC[C@@H]4OCCN[C@H]4C3)[nH]c2c1 [Compound 3-19, 2-{4-[(4αS,8αS)-octahydro-1H-pyrido[3,4-b][1,4]oxazin-6-yl]-2-amino-5-(3,5-difluorophenyl)pyridin-3-yl}-4-fluoro-1H-1,3-benzodiazole-6-carbonitrile]",b (b = between 15 and 50)
4,"COc1cc(F)cc2[nH]c(-c3c(N)ncc(-c4cccc(F)c4)c3N3CC[C@@H]4NCCO[C@H]4C3)nc12 [Compound 3-9, 4-[(4αS,8αS)-octahydro-1H-pyrido[3,4-b][1,4]oxazin-6-yl]-3-(6-fluoro-4-methoxy-1H-1,3-benzodiazol-2-yl)-5-(3-fluorophenyl)pyridin-2-amine]",c (c = between 2.5 and 15)
5,"COc1cc(F)cc2[nH]c(-c3c(N)ncc(-c4cc(F)cc(Cl)c4)c3N3CC[C@@H]4OCCN[C@H]4C3)nc12 [Compound 3-17, 4-[(4αS,8αS)-octahydro-1H-pyrido[3,4-b][1,4]oxazin-6-yl]-5-(3-chloro-5-fluorophenyl)-3-(6-fluoro-4-methoxy-1H-1,3-benzodiazol-2-yl)pyridin-2-amine]",c (c = between 2.5 and 15)
6,"COc1cc(C#N)cc2[nH]c(-c3c(N)ncc(-c4cccc(F)c4)c3N3CC[C@@H]4NCCO[C@H]4C3)nc12 [Compound 3-11, 2-{4-[(4αS,8αS)-octahydro-1H-pyrido[3,4-b][1,4]oxazin-6-yl]-2-amino-5-(3-fluorophenyl)pyridin-3-yl}-4-methoxy-1H-1,3-benzodiazole-6-carbonitrile]",a (a = above 50)
7,"Nc1ncc(-c2cccc(F)c2)c(N2CC[C@@H]3NCCO[C@H]3C2)c1-c1nc2c(F)cc(F)cc2[nH]1 [Compound 3-3, 4-[(4αS,8αS)-octahydro-1H-pyrido[3,4-b][1,4]oxazin-6-yl]-3-(4,6-difluoro-1H-1,3-benzodiazol-2-yl)-5-(3-fluorophenyl)pyridin-2-amine]",c (c = between 2.5 and 15)
8,"CNc1ncc(-c2cccc(F)c2)c(N2CC[C@@H]3NCCO[C@H]3C2)c1-c1nc2c(OC)cc(C#N)cc2[nH]1 [Compound 3-12, 2-[4-[(4αS,8αS)-octahydro-1H-pyrido[3,4-b][1,4]oxazin-6-yl]-5-(3-fluorophenyl)-2-(methylamino)pyridin-3-yl]-4-methoxy-1H-1,3-benzodiazole-6-carbonitrile]",a (a = above 50)
9,"CNc1ncc(-c2cc(F)cc(Cl)c2)c(N2CC[C@@H]3NCCO[C@H]3C2)c1-c1nc2c(OC)cc(F)cc2[nH]1 [Compound 3-13, 4-[(4αS,8αS)-octahydro-1H-pyrido[3,4-b][1,4]oxazin-6-yl]-5-(3-chloro-5-fluorophenyl)-3-(6-fluoro-4-methoxy-1H-1,3-benzodiazol-2-yl)-N-methylpyridin-2-amine]",a (a = above 50)
